Results published in US10086090B2, “Indocyanine compound, synthesis method and purification method thereof, diagnostic composition using the indocyanine compound, and device for measuring biokinetics and device for visualizing circulation using the diagnostic composition” (NATIONAL UNIVERSITY CORPORATION MIE UNIVERSITY, priority 2010, dated 2018).

Columns and labels:
[1] = Fluorescence in aqueous solution; format: physicochemical; settings: 0.1 μM aqueous solution, 25° C., 720 nm excitation; relative to ICG 0.13 in DMSO
Procedure: The fluorescence of ICG and the cyclodextrin-bonded indocyanine compounds of the present invention (the chemical formulae 16, 20, 21, and 23 to 25) in an aqueous solution was studied. A 0.1 μM aqueous solution including ICG or each of the cyclodextrin-bonded indocyanine compounds of the present invention (the chemical formulae 16, 20, 21, and 23 to 25) was put in a 1 cm square quartz cell at 25° C., which was excited with 720 nm excitation light (bandpass: 10 nm), and a fluorescence spectrum (bandpass: 10 nm) was measured. A fluorescence efficiency was calculated based on a fluorescence efficiency of ICG, 0.13 (in DMSO, at 25° C.). […] The fluorescence quantum efficiencies thereof were respectively 2.6-fold and 2-fold of that of ICG.

[2] = Fluorescence in blood (surface fluorescence spectrum); settings: 100 μM in blood (human), 25° C., 760 nm excitation
Procedure: The fluorescence of ICG and the cyclodextrin-bonded indocyanine compounds of the present invention (the chemical formulae 16, 20, 21, and 23 to 25) in blood was studied. ICG and the cyclodextrin-bonded indocyanine compounds of the present invention (the chemical formulae 16, 20, 21, and 23 to 25) were respectively dissolved in blood (human) in a concentration of 100 μM. The resulting blood was put in a triangular quartz cell at 25° C., which was excited with 760 nm excitation light (bandpass: 10 nm), and a surface fluorescence spectrum (bandpass: 10 nm) was measured. […] The cyclodextrin-bonded indocyanine compounds of the present invention, in particular, the compounds represented by the chemical formula 16 and the chemical formula 20 had respectively fluorescence intensities of 270 (arbitrary unit) and 190 (arbitrary unit), which were 4.7-fold and 3.3-fold of that of ICG. It could be considered that this is caused because the emission of light from the cyclodextrin-bonded indocyanine compound of the present invention was not hindered in the living body.

[3] = Solubility tests in water or physiological saline; format: physicochemical; settings: powder
Procedure: Solubility tests of ICG and the cyclodextrin-bonded indocyanine compounds of the present invention (the chemical formulae 16, 20, 21, and 23 to 25) in water or physiological saline were performed.

[4] = Luminance of dorsalis pedis in λ-carrageenin edema rats (acute inflammation experiment); format: in vivo, rat
Procedure: Rats (male, Wister rat) which were 10-week old and about 350 g were selected as a test animal (n=4). The rat was generally anesthetized with isoflurane, and 0.1 mL of 0.5% […] was injected to a left posterior footpad using a 26 G needle, thus resulting quick generation of edema on the foot. After 15 minutes, a volume of the left foot of the rat was measured using a rat footpad volume-measuring device (MK-101 CMP PLETHYSMOMETER manufactured by Muromachi Kikai Co., Ltd.).
After that, the isoflurane was off and the emergence of the rat was confirmed. After Von Frey test was performed, the rat was generally anesthetized with isoflurane again. […]
A moiety (ROI) to be measured by the PDE camera was set at a central part of the dorsalis pedis and light was turned off. […] After that, luminance was measured for one minute at 5 minute-intervals and the measurement was continued until 120 minutes from the infusion. […]
After 7 days, a Von Frey test was performed and then the rat was quickly generally anesthetized with isoflurane, and the volume of the left foot of the rat was measured by using the rat footpad volume-measuring device. […] After that, luminance was measured for one minute at 5 minute-intervals and the measurement was continued until 120 minutes from the infusion. […]

[5] = in DMSO, at 25° C.; cited from earlier work
[6] = Molecule association in aqueous solution (optical absorption spectrum); format: physicochemical; settings: 0.01 mM to 0.1 mM aqueous solutions, 25° C., absorption 600 nm to 1000 nm
Procedure: The molecule association of ICG and the cyclodextrin-bonded indocyanine compounds of the present invention (the chemical formulae 16, 20, 21, and 23 to 25) in an aqueous solution was studied. Each of 0.01 mM, 0.025 mM, 0.05 mM, and 0.1 mM aqueous solutions including ICG or the cyclodextrin-bonded indocyanine compound of the present invention (each chemical formula 16, 20, 21, and 23 to 25) was prepared, it was put in a quartz cell having a length of an optical path of 1 mm, and an optical absorption spectrum at 600 nm to 1000 nm was measured at 25° C.

[7] = cited from earlier work
[8] = Observation of distribution in rat body (caudate vein administration, PDE camera); format: in vivo
Procedure: Left is a monochrome image through visible light, and right is a fluorescence image.
After Wistar male rat (9-week old, a body weight of 350 g) was ether-anesthetized, 0.1 mL of Nembutal was intraperitoneally administered using a 26 G needle to perform the anesthesia. A base of the rat's tail was wrapped tightly with a rubber band to prevent the flow of blood, and the caudate vein was secured with a 24 G Therflow needle and a peripheral line were secured by inserting a three-way stopcock and an extension tube. The rat was fixed on a flat stand in a supine position (FIG. 8). A PDE camera unit manufactured by Hamamatsu Photonics K.K. was set at exactly 16 cm from the body of the rat. When the whole body was extensively photographed, the distance was 20 cm. The observation range was an about range shown by black dots in FIG. 8. After that, ICG, TK1 or TK2 was administered in a concentration of 1 mM from the peripheral line secured. The administration amount was 0.1 mL. After 20 minutes from the administration, the fluorescence state of the abdominal cavity which was opened is shown in FIG. 9, and the fluorescence state (images at the maximum luminance) of the dorsal region of foot was shown in FIG. 12.
In addition, a time reaching the maximum fluorescence intensity value (Imax), Imax value and a time at which the value reached a half of the Imax value (t1/2) are shown in Table 1.

[9] = Observation at blood vessel level (cremaster skin flap); format: in vivo; settings: rat, exposed blood vessel
Procedure: ICG or TK1 was administered in a state in which a blood vessel of a rat was directly exposed and observed by methods disclosed in Non Patent Documents 7 and 8 (FIG. 15), and a state of a cremaster skin flap after the exposure is shown in FIG. 16. ICG or TK1 was administered in the state in which the blood vessel was exposed, and the observation was performed. As a result, it was observed that ICG was unevenly distributed in the blood vessel, compared to TK1. […] In order to more precisely study it, photomicrographs of the blood vessel after the administration are shown in FIG. 17 (ICG) and FIG. 18 (TK1).

[10] = Ischemia model of lower limbs (ligation of right femoral artery); format: in vivo; settings: rat
Excerpt: As apparent from the image view 12, the state in which the fluorescence was emitted in accordance with the blood flow was clear in the dorsal region of foot.

[11] = rat dorsal region of foot, 1 mM 0.1 mL caudate vein

fluorescence quantum efficiency [1]: 0.021
time for luminance in ROI to decrease to the base line ([4]; rat dorsalis pedis, 0.1 mL caudate vein): about 10 minutes
molecule association called H-aggregation [6]: occurred
organ of main accumulation ([8]; Wistar rat, 1 mM 0.1 mL caudate vein, 20 minutes after administration, abdominal cavity opened): mainly accumulated in the liver
half-life ([8]; male, Wistar, intravenous, 0.1 mL of 1 mM solution, rat dorsal region of foot, 1 mM 0.1 mL caudate vein, read-out: t1/2 (time at which the value reached a half of the Imax value)): 2.3 min
time after administration until fluorescence intensity was reduced to about initial value ([8]; rat dorsal region of foot): less than 10 minutes
Imax* (maximum fluorescence intensity value) [8, 11]: 124
Time for Imax (time reaching the maximum fluorescence intensity value) [8, 11]: 0.5 min
SMILES: CC1(C)C(/C=C/C=C/C=C/C=C2\N(CCCCS(=O)(=O)O)c3ccc4ccccc4c3C2(C)C)=[N+](CCCCS(=O)(=O)[O-])c2ccc3ccccc3c21 [ICG, indocyanine green]
fluorescence intensity at the maximum fluorescence wavelength [2]: 58 arbitrary unit
dissolving in water or physiological saline (need for vibration-stirring) [3]: About one minute violent vibration-stirring was necessary
luminance change of dorsalis pedis, λ-carrageenin group versus control ([4]; rat, dye infused after λ-carrageenin injection, interstitial tissue phase): the difference in the luminance was not observed
fluorescence efficiency (reference value) [5]: 0.13
organ of accumulation (as already known) [7]: highly accumulated in liver
transfer from the blood vessel into the interstitial tissue fluid [9]: hardly transferred from the blood vessel into the interstitial tissue fluid
fluorescence in the ischemia area [10]: the fluorescence was not observed in the ischemia area
